Test results published in ChEMBL document CHEMBL2406958, “Development of a chimeric c-Src kinase and HDAC inhibitor” (ACS Med Chem Lett, 2013).

Columns and labels:
[1] = Therapeutic index, ratio of GI50 for human HMEC to GI50 for human SK-BR-3 cells; settings: HMEC cells versus SK-BR-3 cells, read-out: RatioGI50
HMEC = test: Cytotoxicity against human HMEC after 72 hrs by WST1 assay; assay type: cell-based
SK-BR-3 = test: Cytotoxicity against human SK-BR-3 cells after 72 hrs by WST1 assay; assay type: functional
Histone deacetylase 1 [2] = biological target: T1, Histone deacetylase 1 (Homo sapiens, UniProt Q13547); test: Inhibition of HDAC1 (unknown origin) by Fluor de Lys based assay
T1 sequence (Q13547 whole entry): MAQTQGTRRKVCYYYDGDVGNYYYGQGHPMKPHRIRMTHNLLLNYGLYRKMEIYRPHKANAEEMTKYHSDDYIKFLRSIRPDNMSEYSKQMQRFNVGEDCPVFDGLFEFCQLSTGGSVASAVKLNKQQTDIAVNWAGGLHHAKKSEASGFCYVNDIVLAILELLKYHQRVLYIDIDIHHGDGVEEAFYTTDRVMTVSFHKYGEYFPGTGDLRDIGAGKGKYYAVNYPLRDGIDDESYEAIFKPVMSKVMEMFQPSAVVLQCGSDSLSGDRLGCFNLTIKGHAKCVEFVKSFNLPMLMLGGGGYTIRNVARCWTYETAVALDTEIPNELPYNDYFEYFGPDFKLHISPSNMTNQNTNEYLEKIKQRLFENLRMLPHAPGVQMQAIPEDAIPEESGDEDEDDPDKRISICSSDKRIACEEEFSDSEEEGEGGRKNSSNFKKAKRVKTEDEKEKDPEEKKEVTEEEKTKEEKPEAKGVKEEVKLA

[3] = biological target: T2, Proto-oncogene tyrosine-protein kinase Src (Homo sapiens, UniProt P12931); test: Inhibition of c-Src (unknown origin) by fluorescence assay
T2 sequence (P12931 2-536 limits assumed): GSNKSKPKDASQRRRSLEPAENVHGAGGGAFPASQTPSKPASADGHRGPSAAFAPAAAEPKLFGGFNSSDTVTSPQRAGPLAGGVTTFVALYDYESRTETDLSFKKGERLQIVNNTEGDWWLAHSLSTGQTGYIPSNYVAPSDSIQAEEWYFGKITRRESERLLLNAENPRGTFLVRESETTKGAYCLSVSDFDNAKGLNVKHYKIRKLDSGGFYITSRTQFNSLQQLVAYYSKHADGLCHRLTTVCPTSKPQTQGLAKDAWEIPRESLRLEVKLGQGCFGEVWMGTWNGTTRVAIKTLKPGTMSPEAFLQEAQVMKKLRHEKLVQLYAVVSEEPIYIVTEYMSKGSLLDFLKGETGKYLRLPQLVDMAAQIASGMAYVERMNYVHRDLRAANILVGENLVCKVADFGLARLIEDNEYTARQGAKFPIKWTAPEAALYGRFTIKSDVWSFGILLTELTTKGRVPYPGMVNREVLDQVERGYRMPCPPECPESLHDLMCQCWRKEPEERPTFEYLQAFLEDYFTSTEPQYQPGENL

Histone deacetylase 1 [4] = biological target: T1, Histone deacetylase 1; test: Inhibition of human recombinant HDAC1 using Ac-Leu-Gly-Lys(Ac)AMCA as substrate after 30 mins by fluorescence assay
[5] = biological target: T2, Proto-oncogene tyrosine-protein kinase Src; test: Inhibition of c-Src (unknown origin) after 10 mins by fluorimetric assay
SW-620 = test: Cytotoxicity against human SW620 cells after 48 hrs by SRB assay; assay type: functional; settings: SW-620, 48 h
Malme-3M = test: Cytotoxicity against human MALME-3M cells after 48 hrs by SRB assay; assay type: functional
HCT-116 = test: Cytotoxicity against human HCT116 cells after 48 hrs by SRB assay; assay type: functional; settings: HCT-116, 48 h
Hs-578T = test: Cytotoxicity against human Hs578T cells after 48 hrs by SRB assay; assay type: functional
MDA-MB-231 = test: Cytotoxicity against human MDA-MB-231 cells after 48 hrs by SRB assay; assay type: functional; settings: MDA-MB-231, 48 h
DU-145 = test: Cytotoxicity against human DU145 cells after 48 hrs by SRB assay; assay type: functional; settings: DU-145, 48 h
MCF7 = test: Cytotoxicity against human MCF7 cells after 48 hrs by SRB assay; assay type: functional; settings: MCF7, 48 h
U-251 = test: Cytotoxicity against human U251 cells after 48 hrs by SRB assay; assay type: functional; settings: U-251, 48 h
[6] = Cytotoxicity against human NCI60 cells after 48 hrs by SRB assay; assay type: functional; settings: NCI60, 48 h
KM12 = test: Cytotoxicity against human KM12 cells after 48 hrs by SRB assay; assay type: functional; settings: KM12, 48 h
[7] = biological target: Tyrosine-protein kinase HCK (Homo sapiens, UniProt P08631); test: Inhibition of HCK (unknown origin)
Tyrosine-protein kinase HCK, sequence (P08631 whole entry, the tested form may be a part): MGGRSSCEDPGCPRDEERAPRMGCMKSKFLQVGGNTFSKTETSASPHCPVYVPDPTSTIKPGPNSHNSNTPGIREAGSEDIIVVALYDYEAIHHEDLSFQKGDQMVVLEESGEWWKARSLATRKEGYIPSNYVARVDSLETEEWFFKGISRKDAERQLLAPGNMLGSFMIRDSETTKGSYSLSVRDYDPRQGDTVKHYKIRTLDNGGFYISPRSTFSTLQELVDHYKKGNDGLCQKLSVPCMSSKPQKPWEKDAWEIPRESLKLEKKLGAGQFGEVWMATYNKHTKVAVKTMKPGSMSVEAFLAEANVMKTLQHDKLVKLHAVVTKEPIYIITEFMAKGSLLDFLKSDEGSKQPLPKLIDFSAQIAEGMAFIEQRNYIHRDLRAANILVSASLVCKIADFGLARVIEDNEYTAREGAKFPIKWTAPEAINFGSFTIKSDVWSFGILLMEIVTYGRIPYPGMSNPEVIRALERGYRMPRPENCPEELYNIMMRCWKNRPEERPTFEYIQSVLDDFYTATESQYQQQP

Histone deacetylase 11 = Histone deacetylase 11 (Homo sapiens, UniProt Q96DB2); test: Inhibition of HDAC11 (unknown origin) using fluorogenic peptide from p53 residues (379 to 382) (RHKK(Ac)) as substrate by fluorescence assay
[8] = biological target: Polyamine deacetylase HDAC10 (Homo sapiens, UniProt Q969S8); test: Inhibition of HDAC10 (unknown origin) using fluorogenic peptide from p53 residues (379 to 382) (RHKK(Ac)) as substrate by fluorescence assay
Polyamine deacetylase HDAC10, sequence (Q969S8 whole entry, the tested form may be a part): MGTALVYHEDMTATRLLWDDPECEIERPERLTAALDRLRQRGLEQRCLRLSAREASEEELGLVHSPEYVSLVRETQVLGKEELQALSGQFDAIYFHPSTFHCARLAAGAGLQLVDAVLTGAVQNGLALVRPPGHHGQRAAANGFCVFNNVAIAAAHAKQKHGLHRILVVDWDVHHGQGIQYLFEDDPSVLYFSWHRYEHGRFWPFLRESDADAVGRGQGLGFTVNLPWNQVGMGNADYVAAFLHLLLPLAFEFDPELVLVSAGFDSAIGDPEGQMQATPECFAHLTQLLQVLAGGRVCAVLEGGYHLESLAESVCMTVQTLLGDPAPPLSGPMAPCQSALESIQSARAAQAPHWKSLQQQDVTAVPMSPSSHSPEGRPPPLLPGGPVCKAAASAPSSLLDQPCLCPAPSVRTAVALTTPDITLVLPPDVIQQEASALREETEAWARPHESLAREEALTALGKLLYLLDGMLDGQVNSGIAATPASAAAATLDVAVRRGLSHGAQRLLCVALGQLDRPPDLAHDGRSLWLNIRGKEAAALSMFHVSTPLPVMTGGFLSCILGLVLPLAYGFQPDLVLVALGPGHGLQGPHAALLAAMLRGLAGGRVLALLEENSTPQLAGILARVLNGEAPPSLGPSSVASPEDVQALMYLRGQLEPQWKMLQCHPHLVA

Histone deacetylase 9 = Histone deacetylase 9 (Homo sapiens, UniProt Q9UKV0); test: Inhibition of HDAC9 (unknown origin) using Boc-Lys(trifluoroacetyl)-AMC as substrate by fluorescence assay
Histone deacetylase 8 = Histone deacetylase 8 (Homo sapiens, UniProt Q9BY41); test: Inhibition of HDAC8 (unknown origin) using fluorogenic peptide from p53 residues (379 to 382) (RHK(Ac)K(Ac)) as substrate by fluorescence assay
[9] = biological target: Protein deacetylase HDAC6 (Homo sapiens, UniProt Q9UBN7); test: Inhibition of HDAC6 (unknown origin) using fluorogenic peptide from p53 residues (379 to 382) (RHKK(Ac)) as substrate by fluorescence assay
Histone deacetylase 5 = Histone deacetylase 5 (Homo sapiens, UniProt Q9UQL6); test: Inhibition of HDAC5 (unknown origin) using Boc-Lys(trifluoroacetyl)-AMC as substrate by fluorescence assay
Histone deacetylase 5, sequence (Q9UQL6 whole entry): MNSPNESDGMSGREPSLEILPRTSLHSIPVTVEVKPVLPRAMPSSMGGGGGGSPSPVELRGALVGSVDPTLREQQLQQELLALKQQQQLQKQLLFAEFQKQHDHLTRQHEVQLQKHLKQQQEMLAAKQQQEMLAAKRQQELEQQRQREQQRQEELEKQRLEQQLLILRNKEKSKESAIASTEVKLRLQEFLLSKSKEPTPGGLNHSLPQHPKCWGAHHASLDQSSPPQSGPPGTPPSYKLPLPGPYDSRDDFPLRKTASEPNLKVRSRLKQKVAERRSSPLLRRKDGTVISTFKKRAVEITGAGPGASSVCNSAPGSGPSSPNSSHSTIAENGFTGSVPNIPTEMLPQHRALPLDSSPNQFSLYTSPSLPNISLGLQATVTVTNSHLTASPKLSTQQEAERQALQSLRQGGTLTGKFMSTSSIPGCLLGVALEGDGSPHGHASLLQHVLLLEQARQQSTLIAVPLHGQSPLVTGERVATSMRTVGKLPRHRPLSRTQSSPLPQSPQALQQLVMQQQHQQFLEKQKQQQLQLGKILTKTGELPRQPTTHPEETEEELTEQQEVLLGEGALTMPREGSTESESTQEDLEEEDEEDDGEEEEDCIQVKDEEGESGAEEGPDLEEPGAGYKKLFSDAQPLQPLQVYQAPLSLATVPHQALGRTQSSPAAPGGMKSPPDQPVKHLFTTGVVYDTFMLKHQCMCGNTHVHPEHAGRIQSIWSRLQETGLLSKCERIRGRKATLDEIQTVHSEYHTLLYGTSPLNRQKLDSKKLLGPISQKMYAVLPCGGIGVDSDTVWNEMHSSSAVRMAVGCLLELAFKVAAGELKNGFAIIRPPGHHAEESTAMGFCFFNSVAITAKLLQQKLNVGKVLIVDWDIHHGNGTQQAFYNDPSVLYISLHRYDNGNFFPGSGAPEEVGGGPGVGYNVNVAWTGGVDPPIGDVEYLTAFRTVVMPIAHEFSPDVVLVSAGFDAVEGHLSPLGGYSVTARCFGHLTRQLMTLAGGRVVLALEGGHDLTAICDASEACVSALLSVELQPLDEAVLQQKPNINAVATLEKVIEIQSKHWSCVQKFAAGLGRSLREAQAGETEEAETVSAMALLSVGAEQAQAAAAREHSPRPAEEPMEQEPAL

Histone deacetylase 4 = Histone deacetylase 4 (Homo sapiens, UniProt P56524); test: Inhibition of HDAC4 (unknown origin) using Boc-Lys(trifluoroacetyl)-AMC as substrate by fluorescence assay
Histone deacetylase 4, sequence (P56524 whole entry, the tested form may be a part): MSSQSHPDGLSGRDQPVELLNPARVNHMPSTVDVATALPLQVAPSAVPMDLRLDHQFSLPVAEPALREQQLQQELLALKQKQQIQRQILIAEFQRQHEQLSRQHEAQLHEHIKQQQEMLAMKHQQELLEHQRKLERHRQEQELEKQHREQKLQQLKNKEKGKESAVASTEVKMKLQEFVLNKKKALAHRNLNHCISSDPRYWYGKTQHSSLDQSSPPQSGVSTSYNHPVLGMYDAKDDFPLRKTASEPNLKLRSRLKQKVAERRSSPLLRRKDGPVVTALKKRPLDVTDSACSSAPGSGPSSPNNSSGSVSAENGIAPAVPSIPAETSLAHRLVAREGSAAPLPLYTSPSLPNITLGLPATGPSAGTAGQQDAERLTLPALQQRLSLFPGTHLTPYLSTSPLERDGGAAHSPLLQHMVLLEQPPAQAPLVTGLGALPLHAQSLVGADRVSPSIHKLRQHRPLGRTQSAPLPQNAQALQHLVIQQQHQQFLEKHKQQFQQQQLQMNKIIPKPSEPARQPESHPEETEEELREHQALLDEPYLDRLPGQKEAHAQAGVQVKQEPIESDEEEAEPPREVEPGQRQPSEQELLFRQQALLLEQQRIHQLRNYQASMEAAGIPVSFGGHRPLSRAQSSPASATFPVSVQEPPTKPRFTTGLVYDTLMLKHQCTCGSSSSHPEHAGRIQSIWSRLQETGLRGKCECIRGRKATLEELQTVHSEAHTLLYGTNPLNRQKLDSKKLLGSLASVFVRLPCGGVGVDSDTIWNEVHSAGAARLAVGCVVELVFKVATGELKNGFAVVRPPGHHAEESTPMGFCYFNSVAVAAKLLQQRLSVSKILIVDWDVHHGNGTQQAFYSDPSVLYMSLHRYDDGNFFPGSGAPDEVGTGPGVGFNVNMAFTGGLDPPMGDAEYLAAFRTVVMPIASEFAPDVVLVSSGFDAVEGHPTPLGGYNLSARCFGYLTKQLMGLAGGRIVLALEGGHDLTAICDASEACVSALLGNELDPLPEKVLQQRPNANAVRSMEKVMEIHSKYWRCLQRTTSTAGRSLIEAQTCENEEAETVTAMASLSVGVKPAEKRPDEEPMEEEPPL

Histone deacetylase 3 = Histone deacetylase 3 (Homo sapiens, UniProt O15379); test: Inhibition of HDAC3 (unknown origin) using fluorogenic peptide from p53 residues (379 to 382) (RHKK(Ac)) as substrate by fluorescence assay
Histone deacetylase 2 = Histone deacetylase 2 (Homo sapiens, UniProt Q92769)
Histone deacetylase 2, sequence (Q92769 whole entry, the tested form may be a part): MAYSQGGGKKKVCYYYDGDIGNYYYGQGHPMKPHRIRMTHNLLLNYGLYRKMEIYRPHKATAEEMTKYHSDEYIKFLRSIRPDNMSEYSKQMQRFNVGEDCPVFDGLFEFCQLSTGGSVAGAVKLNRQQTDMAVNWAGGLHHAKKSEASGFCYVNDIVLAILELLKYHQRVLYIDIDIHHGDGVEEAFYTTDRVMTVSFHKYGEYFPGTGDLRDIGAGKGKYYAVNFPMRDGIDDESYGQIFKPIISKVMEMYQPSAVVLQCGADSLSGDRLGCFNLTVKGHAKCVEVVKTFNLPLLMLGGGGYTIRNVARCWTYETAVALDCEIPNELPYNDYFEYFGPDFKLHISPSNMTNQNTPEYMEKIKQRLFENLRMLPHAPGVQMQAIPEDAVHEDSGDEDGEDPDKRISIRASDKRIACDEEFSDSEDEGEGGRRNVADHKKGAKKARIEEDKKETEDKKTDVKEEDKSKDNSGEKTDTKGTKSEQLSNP

Histone deacetylase 1 [10] = biological target: T1, Histone deacetylase 1; test: Inhibition of HDAC1 (unknown origin) using fluorogenic peptide from p53 residues (379 to 382) (RHKK(Ac)) as substrate by fluorescence assay
[11] = biological target: Tyrosine-protein kinase ABL1 (Homo sapiens, UniProt P00519); test: Inhibition of c-Abl (unknown origin)

`Nc1ncnc2c1c(-c1ccc(Cl)cc1)nn2-c1cccc(-c2cnnn2Cc2cccc(-c3ccccc3)c2)c1` gave a selectivity ratio [1] of 0.9, a GI50 (HMEC) of 4300 nM and a GI50 (SK-BR-3; Homo sapiens, SK-BR-3, 72 h) of 4800 nM.
For `Nc1ncnc2c1c(-c1ccc(Cl)cc1)nn2-c1cccc(-c2cn(CCCCCC(=O)NO)nn2)c1`, the Ki (Histone deacetylase 1 [2]) was 0.62 nM and the Ki [3] was 371 nM.
`Nc1ncnc2c1c(-c1ccc(Cl)cc1)nn2-c1cccc(-c2cnnn2CCCCCCC(=O)NO)c1` showed a Ki (Histone deacetylase 1 [4]) of 0.82 nM and a Ki [5] of 190 nM.
For `Cc1nc(Nc2ncc(C(=O)Nc3c(C)cccc3Cl)s2)cc(N2CCN(CCO)CC2)n1` [DASATINIB], the GI50 (SW-620) was 8430 nM, the GI50 (Malme-3M) was 6610 nM and the GI50 (HCT-116) was 3700 nM. It also gave a GI50 (Hs-578T) of 30 nM, a GI50 (MDA-MB-231) of 20 nM and a GI50 (DU-145) of 160 nM. For the same compound, the GI50 (MCF7) was 8320 nM, the GI50 (U-251) was 2810 nM and the GI50 [6] was 5700 nM. For the same compound, the GI50 (HMEC) was 1800 nM.
Compound `Nc1ncnc2c1c(-c1ccc(Cl)cc1)nn2-c1cccc(-c2cnnn2Cc2cccc(/C=C/C(=O)NO)c2)c1` has a Ki (Histone deacetylase 1 [4]) of 23 nM.
Work on `Nc1ncnc2c1c(-c1ccc(Cl)cc1)nn2-c1cccc(-c2cnnn2CCCCCCCC(=O)NO)c1` yielded a Ki (Histone deacetylase 1 [4]) of 9.8 nM.
Work on `Nc1ncnc2c1c(-c1ccc(Cl)cc1)nn2-c1cccc(-c2cnnn2CCCCCC(=O)NO)c1` yielded a GI50 (SW-620) of 250 nM, a GI50 (Malme-3M) of 70 nM and a GI50 (HCT-116) of 220 nM. For the same compound, the GI50 (Hs-578T) was 170 nM, the GI50 (MDA-MB-231) was 390 nM and the GI50 (DU-145) was 390 nM. It also gave a GI50 (MCF7) of 350 nM, a GI50 (U-251) of 280 nM and a GI50 (KM12) of 470 nM. For the same compound, the Ki [7] was 504 nM, the GI50 [6] was 260 nM and the IC50 (Histone deacetylase 11) was 224 nM. The IC50 [8] was 51 nM, the IC50 (Histone deacetylase 9) was 28000 nM and the IC50 (Histone deacetylase 8) was 2310 nM. For the same compound, the IC50 [9] was 2.7 nM, the IC50 (Histone deacetylase 5) was 3890 nM and the IC50 (Histone deacetylase 4) was 3980 nM. For the same compound, the IC50 (Histone deacetylase 3) was 19 nM, the IC50 (Histone deacetylase 2) was 231 nM and the IC50 (Histone deacetylase 1 [10]) was 86 nM. The Ki (Histone deacetylase 1 [4]) was 0.26 nM, the Ki [5] was 138 nM and the Ki [11] was 2350 nM. For the same compound, the Ki (Histone deacetylase 1 [2]) was 0.26 nM, the Ki [3] was 138 nM and the GI50 (HMEC) was 4700 nM. It also gave a GI50 (SK-BR-3; Homo sapiens, SK-BR-3, 72 h) of 200 nM.
For `Nc1ncnc2c1c(-c1ccc(Cl)cc1)nn2-c1ccccc1`, the Ki [3] was 605 nM.
`Nc1ncnc2c1c(-c1ccc(Cl)cc1)nn2-c1cccc(-c2cnnn2Cc2ccc(/C=C/C(=O)NO)cc2)c1` gave a Ki (Histone deacetylase 1 [4]) of 35 nM and a Ki [5] of 4300 nM.
In the case of `O=C(CCCCCn1nncc1-c1ccccc1)NO`, the Ki (Histone deacetylase 1 [2]) is reported as 45 nM.
Compound `O=C(CCCCCCC(=O)Nc1ccccc1)NO` [VORINOSTAT] has a GI50 (HMEC) of 5800 nM and a GI50 (SK-BR-3) of 1200 nM.
